Measured values: PubChem BioAssay AID651850 (Broad Institute, 2012)
The source made the active and inactive calls. How the calls were made is not given here.

What was measured:
[1] = system: M. tuberculosis log-phase growth, CFU enumeration; assay: M. tuberculosis log-phase growth inhibition, dose response, dry powder samples (AID 651850)
[2] = as above; conditions: M. tuberculosis log-phase growth, CFU enumeration

Row | Compound | IC90 [1] [µM] | outcome [2]
1 | COc1ccc(CSc2nnc(-c3ccc(Cl)cc3)o2)nc1 | 16 | 
2 | c1ccc(-n2cc(CSc3nnc(C4CCC4)o3)nn2)cc1 | 62 | 
3 | Brc1cccc(-c2nnc(SCc3ccccn3)o2)c1 | 62 | 
4 | Fc1ccc(Cn2cc(CSc3nnc(-c4ccc(Cl)cc4)o3)nn2)cc1 |  | inactive
5 | Clc1ccc(-c2nnc(SCc3cn(-c4ccccc4)nn3)o2)cc1 |  | inactive
6 | Fc1ccc(Cn2cc(CSc3nnc(-c4ccc(F)cc4)o3)nn2)cc1 |  | inactive
7 | c1ccc(Cn2cc(CSc3nnc(C4CCC4)o3)nn2)cc1 |  | inactive
8 | COc1cccc(-c2nnc(SCc3ccccn3)o2)c1 | 62 | 
9 | c1ccc(-c2nnc(SCc3ccccn3)o2)cc1 | < 31 | 
10 | Fc1ccc(-c2nnc(SCc3cn(Cc4ccccc4)nn3)o2)cc1 | 62 | 
11 | Fc1ccc(-c2nnc(SCc3cn(-c4ccccc4)nn3)o2)cc1 |  | inactive
12 | c1ccc(-c2nnc(SCCN3CCN(c4ccccc4)CC3)o2)cc1 | 62 | 
13 | O=S(Cc1ccccc1)c1nnc(-c2ccccc2)o1 (stereo not drawn) | < 31 | 
14 | O=S(Cc1cn(Cc2ccccc2)nn1)c1nnc(-c2ccc(Cl)cc2)o1 (stereo not drawn) | 62 | 
15 | c1ccc(-c2nnc(SCc3cscn3)o2)cc1 | 62 | 
16 | Brc1ccc(-c2nnc(SCc3ccccn3)o2)cc1 | 62 | 
17 | Fc1ccc(Cn2cc(CSc3nnc(C4CCCC4)o3)nn2)cc1 |  | inactive
18 | c1ccc(CSc2nnc(-c3ccccc3)o2)cc1 | 62 | 
19 | c1ccc(Cn2cc(CSc3nnc(C4CCCC4)o3)nn2)cc1 | 62 | 
20 | Clc1ccc(-c2nnc(SCc3cn(Cc4ccccc4)nn3)o2)cc1 | 125 | inactive
21 | CC(C)c1nnc(SCc2ccccc2)o1 | 125 | 
22 | c1ccc(CSc2nnc(C3CCCC3)o2)cc1 | 250 | 
23 | Fc1cccc(-c2nnc(SCc3ccccn3)o2)c1 | 31 | 
24 | Fc1ccc(Cn2cc(CSc3nnc(C4CCC4)o3)nn2)cc1 |  | inactive
25 | c1ccc(-n2cc(CSc3nnc(C4CCCC4)o3)nn2)cc1 | 62 | 
26 | c1ccc(Cn2cc(CSc3nnc(-c4ccccc4)o3)nn2)cc1 |  | inactive
27 | Fc1ccc(-c2nnc(SCc3ccccn3)o2)cc1 | 16 | 
